Columns and labels:
Type in all cases: in vivo
Conditions in all cases: 250 g/ha unless otherwise stated, evaluated after 13 days, five-point scale
[1] = system: Echinochloa crus-galli (ECHCG); assay: Test 1 glasshouse herbicide test, post-emergence application (Table B1)
Experimental: (§1) Seeds of a variety of test species are sown in standard soil in pots (Lolium perenne (LOLPE), Solanum nigrum (SOLNI), Amaranthus retoflexus (AMARE), Setaria faberi (SETFA), Echinochloa crus-galli (ECHCG) and Ipomoea hederacea (IPOHE)). After cultivation for one day (pre-emergence) or after 8 days cultivation (post-emergence) under controlled conditions in a glasshouse (at 24/16° C., day/night; 14 hours light; 65% humidity), the plants are sprayed with an aqueous spray solution derived from the formulation of the technical active ingredient in acetone/water (50:50) solution containing 0.5% Tween 20 (polyoxyethelyene sorbitan monolaurate, CAS RN 9005-64-5). Compounds are applied at 250 g/ha unless otherwise stated. The test plants are then grown in a glasshouse under controlled conditions in a glasshouse (at 24/16° C., day/night; 14 hours light; 65% humidity) and watered twice daily. After 13 days for pre and post-emergence, the test is evaluated for the percentage damage caused to the plant. The biological activities (% phytotoxicity) are shown in Tables B1 and B2 below using a five-point scale (5=81 to 100%; 4=61 to 80%; 3=41 to 60%; 2=21 to 40%; 1=0 to 20%).

[2] = system: Amaranthus retoflexus (AMARE); assay: as above
Experimental: as §1

[3] = system: Ipomoea hederacea (IPOHE); assay: as above
Experimental: as §1

[4] = system: Setaria faberi (SETFA); assay: as above
Experimental: as §1

[5] = system: Echinochloa crus-galli (ECHCG); assay: Test 1 glasshouse herbicide test, pre-emergence application (Table B2)
Experimental: as §1

[6] = system: Amaranthus retoflexus (AMARE); assay: as above
Experimental: as §1

[7] = system: Ipomoea hederacea (IPOHE); assay: as above
Experimental: as §1

[8] = system: Setaria faberi (SETFA); assay: as above
Experimental: as §1

Row | Compound | % phytotoxicity ECHCG, post-emergence application [1] | % phytotoxicity AMARE, post-emergence application [2] | % phytotoxicity IPOHE, post-emergence application [3] | % phytotoxicity SETFA, post-emergence application [4] | % phytotoxicity ECHCG, pre-emergence application [5] | % phytotoxicity AMARE, pre-emergence application [6] | % phytotoxicity IPOHE, pre-emergence application [7] | % phytotoxicity SETFA, pre-emergence application [8]
1 | C#CCSc1ccccc1Oc1ncc(Cl)cn1 [Compound A45] | 3 (3=41 to 60%) | 3 (3=41 to 60%) | 1 (1=0 to 20%) | 2 (2=21 to 40%) | 3 (3=41 to 60%) | 3 (3=41 to 60%) | 1 (1=0 to 20%) | 3 (3=41 to 60%)
2 | C#CCS(=O)(=O)c1ccccc1Oc1ncc(Cl)cn1 [Compound A46] | 1 (1=0 to 20%) | 1 (1=0 to 20%) | 1 (1=0 to 20%) | 1 (1=0 to 20%) | 1 (1=0 to 20%) | 1 (1=0 to 20%) | 1 (1=0 to 20%) | 1 (1=0 to 20%)
3 | C=CCS(=O)(=O)c1ccccc1Oc1ncc(Cl)cn1 [Compound A48] | 1 (1=0 to 20%) | 2 (2=21 to 40%) | 1 (1=0 to 20%) | 1 (1=0 to 20%) | 1 (1=0 to 20%) | 1 (1=0 to 20%) | 1 (1=0 to 20%) | 1 (1=0 to 20%)
4 | CCCSc1ccccc1Oc1ncc(Cl)cn1 [Compound A49] | 4 (4=61 to 80%) | 4 (4=61 to 80%) | 4 (4=61 to 80%) | 4 (4=61 to 80%) | 5 (5=81 to 100%) | 5 (5=81 to 100%) | 3 (3=41 to 60%) | 5 (5=81 to 100%)
5 | CCCS(=O)(=O)c1ccccc1Oc1ncc(Cl)cn1 [Compound A50] | 1 (1=0 to 20%) | 4 (4=61 to 80%) | 2 (2=21 to 40%) | 1 (1=0 to 20%) | 4 (4=61 to 80%) | 5 (5=81 to 100%) | 2 (2=21 to 40%) | 5 (5=81 to 100%)
6 | O=S(=O)(CC1CC1)c1ccccc1Oc1ncc(Cl)cn1 [Compound A51] | 1 (1=0 to 20%) | 3 (3=41 to 60%) | 1 (1=0 to 20%) | 1 (1=0 to 20%) | 1 (1=0 to 20%) | 4 (4=61 to 80%) | 1 (1=0 to 20%) | 2 (2=21 to 40%)
7 | CC(C)=CCSc1ccccc1Oc1ncc(Cl)cn1 [Compound A52] | 4 (4=61 to 80%) | 3 (3=41 to 60%) | 1 (1=0 to 20%) | 3 (3=41 to 60%) | 2 (2=21 to 40%) | 1 (1=0 to 20%) | 1 (1=0 to 20%) | 1 (1=0 to 20%)
8 | CCCCCCSc1ccccc1Oc1ncc(Cl)cn1 [Compound A53] | 1 (1=0 to 20%) | 4 (4=61 to 80%) | 1 (1=0 to 20%) | 1 (1=0 to 20%) | 2 (2=21 to 40%) | 3 (3=41 to 60%) | 1 (1=0 to 20%) | 3 (3=41 to 60%)
9 | FC(F)(F)CSc1ccccc1Oc1ncc(Cl)cn1 [Compound A55] | 4 (4=61 to 80%) | 5 (5=81 to 100%) | 4 (4=61 to 80%) | 4 (4=61 to 80%) | 5 (5=81 to 100%) | 5 (5=81 to 100%) | 2 (2=21 to 40%) | 5 (5=81 to 100%)
10 | COCCCSc1ccccc1Oc1ncc(Cl)cn1 [Compound A56] | 1 (1=0 to 20%) | 2 (2=21 to 40%) | 1 (1=0 to 20%) | 1 (1=0 to 20%) | 1 (1=0 to 20%) | 2 (2=21 to 40%) | 2 (2=21 to 40%) | 2 (2=21 to 40%)
11 | Clc1cnc(Oc2ccccc2SCCn2cc(Cl)cn2)nc1 [Compound A57] | 4 (4=61 to 80%) | 5 (5=81 to 100%) | 2 (2=21 to 40%) | 4 (4=61 to 80%) | 3 (3=41 to 60%) | 4 (4=61 to 80%) | 1 (1=0 to 20%) | 4 (4=61 to 80%)
12 | FCCCSc1ccccc1Oc1ncc(Cl)cn1 [Compound A59] | 4 (4=61 to 80%) | 5 (5=81 to 100%) | 2 (2=21 to 40%) | 2 (2=21 to 40%) | 5 (5=81 to 100%) | 5 (5=81 to 100%) | 2 (2=21 to 40%) | 4 (4=61 to 80%)
13 | FCCSc1ccccc1Oc1ncc(Cl)cn1 [Compound A60] | 1 (1=0 to 20%) | 3 (3=41 to 60%) | 2 (2=21 to 40%) | 1 (1=0 to 20%) | 2 (2=21 to 40%) | 4 (4=61 to 80%) | 1 (1=0 to 20%) | 3 (3=41 to 60%)
14 | FC(F)CSc1ccccc1Oc1ncc(Cl)cn1 [Compound A61] | 2 (2=21 to 40%) | 5 (5=81 to 100%) | 2 (2=21 to 40%) | 2 (2=21 to 40%) | 3 (3=41 to 60%) | 5 (5=81 to 100%) | 2 (2=21 to 40%) | 4 (4=61 to 80%)
15 | C=C(C)CSc1ccccc1Oc1ncc(Cl)cn1 [Compound A62] | 4 (4=61 to 80%) | 1 (1=0 to 20%) | 1 (1=0 to 20%) | 3 (3=41 to 60%) | 3 (3=41 to 60%) | 1 (1=0 to 20%) | 1 (1=0 to 20%) | 3 (3=41 to 60%)
16 | CCC(CC)CSc1ccccc1Oc1ncc(Cl)cn1 [Compound A64] | 1 (1=0 to 20%) | 2 (2=21 to 40%) | 2 (2=21 to 40%) | 2 (2=21 to 40%) | 1 (1=0 to 20%) | 1 (1=0 to 20%) | 1 (1=0 to 20%) | 1 (1=0 to 20%)
17 | Clc1cnc(Oc2ccccc2SCc2cccc(Cl)c2)nc1 [Compound A66] | 4 (4=61 to 80%) | 4 (4=61 to 80%) | 2 (2=21 to 40%) | 3 (3=41 to 60%) | 2 (2=21 to 40%) | 1 (1=0 to 20%) | 1 (1=0 to 20%) | 2 (2=21 to 40%)

Source: US20220324815A1, “2-PHENOXY-PYRIMIDINE DERIVATIVES AS HERBICIDAL COMPOUNDS” (SYNGENTA CROP PROTECTION AG, priority 2019, published 2022)
